Read-outs that look alike come from different tables or passages of the source.
Experiments:
Experiment in all cases: biochemical
Assay type in all cases: binding
[1] = target: panel of 468 diverse kinases (Homo sapiens, UniProt O95747); conditions: OSR1; 1000 nM; read-out: Percent Control
[2] = target: panel of 468 diverse kinases (Homo sapiens, UniProt Q08881); conditions: ITK; 1000 nM; read-out: Percent Control
[3] = target: panel of 468 diverse kinases (Homo sapiens, UniProt Q9Y2H1); conditions: NDR2; 1000 nM; read-out: Percent Control
[4] = target: panel of 468 diverse kinases (Homo sapiens, UniProt O43683); conditions: BUB1; 1000 nM; read-out: Percent Control
[5] = target: panel of 468 diverse kinases (Homo sapiens, UniProt Q99759); conditions: MAP3K3; 1000 nM; read-out: Percent Control
[6] = target: panel of 468 diverse kinases (Homo sapiens, UniProt P10721, V559D/V654A); conditions: KIT(V559D,V654A); 1000 nM; read-out: Percent Control
Sequence of panel of 468 diverse kinases (Homo sapiens, UniProt P10721, V559D/V654A) (P10721 26-976 V559D/V654A limits assumed): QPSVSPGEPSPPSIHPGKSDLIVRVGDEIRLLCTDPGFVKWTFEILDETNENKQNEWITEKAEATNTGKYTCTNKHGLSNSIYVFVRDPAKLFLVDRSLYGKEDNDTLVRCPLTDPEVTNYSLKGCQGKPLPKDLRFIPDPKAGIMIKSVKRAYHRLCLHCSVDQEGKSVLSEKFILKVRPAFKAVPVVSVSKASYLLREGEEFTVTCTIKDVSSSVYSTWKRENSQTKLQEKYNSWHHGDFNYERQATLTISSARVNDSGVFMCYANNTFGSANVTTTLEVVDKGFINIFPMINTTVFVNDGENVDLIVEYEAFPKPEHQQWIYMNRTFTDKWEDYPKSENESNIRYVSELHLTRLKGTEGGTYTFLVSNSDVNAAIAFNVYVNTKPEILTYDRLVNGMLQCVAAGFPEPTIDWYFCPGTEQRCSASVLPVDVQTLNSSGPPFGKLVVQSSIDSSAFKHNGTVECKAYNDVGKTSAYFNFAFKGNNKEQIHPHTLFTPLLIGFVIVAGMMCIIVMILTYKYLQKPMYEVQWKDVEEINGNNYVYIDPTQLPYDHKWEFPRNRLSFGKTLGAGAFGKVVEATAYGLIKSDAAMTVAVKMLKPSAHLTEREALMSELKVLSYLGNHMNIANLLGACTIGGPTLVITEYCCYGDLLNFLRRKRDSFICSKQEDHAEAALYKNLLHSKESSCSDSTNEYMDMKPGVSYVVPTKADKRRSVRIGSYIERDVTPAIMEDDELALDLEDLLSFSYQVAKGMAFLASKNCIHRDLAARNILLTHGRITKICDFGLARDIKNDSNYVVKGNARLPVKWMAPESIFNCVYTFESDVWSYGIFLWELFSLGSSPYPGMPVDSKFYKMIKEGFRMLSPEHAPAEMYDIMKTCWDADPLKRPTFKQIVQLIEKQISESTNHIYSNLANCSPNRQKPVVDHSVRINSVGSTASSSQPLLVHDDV

[7] = target: panel of 468 diverse kinases (Homo sapiens, UniProt Q14012); conditions: CAMK1; 1000 nM; read-out: Percent Control
[8] = target: panel of 468 diverse kinases (Homo sapiens, UniProt P45985); conditions: MEK4; 1000 nM; read-out: Percent Control
[9] = target: panel of 468 diverse kinases (Homo sapiens, UniProt Q5VT25); conditions: MRCKA; 1000 nM; read-out: Percent Control
[10] = target: panel of 468 diverse kinases (Homo sapiens, UniProt P08922); conditions: ROS1; 1000 nM; read-out: Percent Control
[11] = target: panel of 468 diverse kinases (Homo sapiens, UniProt P41743); conditions: PRKCI; 1000 nM; read-out: Percent Control
Sequence of panel of 468 diverse kinases (Homo sapiens, UniProt P41743) (P41743 2-596 limits assumed): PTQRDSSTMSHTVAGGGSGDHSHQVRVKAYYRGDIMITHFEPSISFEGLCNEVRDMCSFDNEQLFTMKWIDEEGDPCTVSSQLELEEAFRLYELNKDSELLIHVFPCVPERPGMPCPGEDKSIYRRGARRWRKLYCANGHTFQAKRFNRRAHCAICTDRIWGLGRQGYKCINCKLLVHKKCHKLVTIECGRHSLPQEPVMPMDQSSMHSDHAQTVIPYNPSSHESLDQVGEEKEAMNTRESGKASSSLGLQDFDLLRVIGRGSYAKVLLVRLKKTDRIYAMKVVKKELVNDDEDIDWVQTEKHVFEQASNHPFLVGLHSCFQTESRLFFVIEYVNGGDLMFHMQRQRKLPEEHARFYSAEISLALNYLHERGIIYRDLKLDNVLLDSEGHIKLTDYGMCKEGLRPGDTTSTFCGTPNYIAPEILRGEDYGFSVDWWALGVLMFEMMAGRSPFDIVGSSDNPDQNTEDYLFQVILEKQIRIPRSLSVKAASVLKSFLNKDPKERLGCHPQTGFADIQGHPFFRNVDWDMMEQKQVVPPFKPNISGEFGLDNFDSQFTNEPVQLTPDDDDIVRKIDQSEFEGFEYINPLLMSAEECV

[12] = target: panel of 468 diverse kinases (Homo sapiens, UniProt Q00537); conditions: PCTK2; 1000 nM; read-out: Percent Control
[13] = target: panel of 468 diverse kinases (Homo sapiens, UniProt Q13177); conditions: PAK2; 1000 nM; read-out: Percent Control
Sequence of panel of 468 diverse kinases (Homo sapiens, UniProt Q13177) (Q13177 2-524 limits assumed): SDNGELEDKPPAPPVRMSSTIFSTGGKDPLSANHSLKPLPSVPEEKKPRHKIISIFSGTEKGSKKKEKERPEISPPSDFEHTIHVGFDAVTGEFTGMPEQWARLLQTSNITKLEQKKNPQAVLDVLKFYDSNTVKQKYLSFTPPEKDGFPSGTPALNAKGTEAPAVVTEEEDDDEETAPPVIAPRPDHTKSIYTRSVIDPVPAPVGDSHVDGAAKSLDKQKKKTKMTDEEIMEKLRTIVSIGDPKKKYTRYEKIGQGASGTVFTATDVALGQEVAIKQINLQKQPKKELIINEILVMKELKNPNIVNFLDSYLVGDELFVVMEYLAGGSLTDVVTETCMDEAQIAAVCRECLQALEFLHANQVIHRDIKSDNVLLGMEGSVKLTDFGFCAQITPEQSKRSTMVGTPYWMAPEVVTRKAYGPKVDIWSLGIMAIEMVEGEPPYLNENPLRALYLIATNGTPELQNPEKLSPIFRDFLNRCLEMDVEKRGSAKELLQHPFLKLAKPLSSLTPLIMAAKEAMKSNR

[14] = target: panel of 468 diverse kinases (Homo sapiens, UniProt P06241); conditions: FYN; 1000 nM; read-out: Percent Control
Sequence of panel of 468 diverse kinases (Homo sapiens, UniProt P06241) (P06241 2-537 limits assumed): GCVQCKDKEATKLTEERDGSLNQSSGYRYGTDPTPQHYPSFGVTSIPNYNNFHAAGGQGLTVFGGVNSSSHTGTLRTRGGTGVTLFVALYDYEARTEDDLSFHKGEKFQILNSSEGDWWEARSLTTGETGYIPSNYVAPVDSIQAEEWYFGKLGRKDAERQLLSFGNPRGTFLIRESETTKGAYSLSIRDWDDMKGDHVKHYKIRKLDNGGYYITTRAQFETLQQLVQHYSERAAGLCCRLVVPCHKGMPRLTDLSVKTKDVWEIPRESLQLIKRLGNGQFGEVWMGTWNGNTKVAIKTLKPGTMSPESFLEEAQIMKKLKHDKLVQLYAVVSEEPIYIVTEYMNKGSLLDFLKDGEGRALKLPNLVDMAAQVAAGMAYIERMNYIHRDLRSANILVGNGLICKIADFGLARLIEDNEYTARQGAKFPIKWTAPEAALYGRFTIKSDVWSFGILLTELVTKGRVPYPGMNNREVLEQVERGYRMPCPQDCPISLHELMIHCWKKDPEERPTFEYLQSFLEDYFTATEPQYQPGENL

[15] = target: panel of 468 diverse kinases (Homo sapiens, UniProt Q8NE63); conditions: HIPK4; 1000 nM; read-out: Percent Control
[16] = target: panel of 468 diverse kinases (Homo sapiens, UniProt Q8WU08); conditions: YANK1; 1000 nM; read-out: Percent Control
[17] = target: panel of 468 diverse kinases (Homo sapiens, UniProt P78362); conditions: SRPK2; 1000 nM; read-out: Percent Control
[18] = target: panel of 468 diverse kinases (Homo sapiens, UniProt Q92772); conditions: CDKL2; 1000 nM; read-out: Percent Control
[19] = target: panel of 468 diverse kinases (Homo sapiens, UniProt Q9UKE5); conditions: TNIK; 1000 nM; read-out: Percent Control
[20] = target: panel of 468 diverse kinases (Homo sapiens, UniProt Q15418); conditions: 1000 nM, read-out: Percent Control
[21] = target: panel of 468 diverse kinases (Homo sapiens, UniProt P27037); conditions: ACVR2A; 1000 nM; read-out: Percent Control
[22] = target: panel of 468 diverse kinases (Homo sapiens, UniProt Q6P3R8); conditions: NEK5; 1000 nM; read-out: Percent Control
[23] = target: panel of 468 diverse kinases (Homo sapiens, UniProt O14733); conditions: MKK7; 1000 nM; read-out: Percent Control
[24] = target: panel of 468 diverse kinases (Homo sapiens, UniProt P57078); conditions: RIPK4; 1000 nM; read-out: Percent Control
[25] = target: panel of 468 diverse kinases (Homo sapiens, UniProt Q9UF33); conditions: EPHA6; 1000 nM; read-out: Percent Control
Sequence of panel of 468 diverse kinases (Homo sapiens, UniProt Q9UF33) (Q9UF33 23-1036 limits assumed): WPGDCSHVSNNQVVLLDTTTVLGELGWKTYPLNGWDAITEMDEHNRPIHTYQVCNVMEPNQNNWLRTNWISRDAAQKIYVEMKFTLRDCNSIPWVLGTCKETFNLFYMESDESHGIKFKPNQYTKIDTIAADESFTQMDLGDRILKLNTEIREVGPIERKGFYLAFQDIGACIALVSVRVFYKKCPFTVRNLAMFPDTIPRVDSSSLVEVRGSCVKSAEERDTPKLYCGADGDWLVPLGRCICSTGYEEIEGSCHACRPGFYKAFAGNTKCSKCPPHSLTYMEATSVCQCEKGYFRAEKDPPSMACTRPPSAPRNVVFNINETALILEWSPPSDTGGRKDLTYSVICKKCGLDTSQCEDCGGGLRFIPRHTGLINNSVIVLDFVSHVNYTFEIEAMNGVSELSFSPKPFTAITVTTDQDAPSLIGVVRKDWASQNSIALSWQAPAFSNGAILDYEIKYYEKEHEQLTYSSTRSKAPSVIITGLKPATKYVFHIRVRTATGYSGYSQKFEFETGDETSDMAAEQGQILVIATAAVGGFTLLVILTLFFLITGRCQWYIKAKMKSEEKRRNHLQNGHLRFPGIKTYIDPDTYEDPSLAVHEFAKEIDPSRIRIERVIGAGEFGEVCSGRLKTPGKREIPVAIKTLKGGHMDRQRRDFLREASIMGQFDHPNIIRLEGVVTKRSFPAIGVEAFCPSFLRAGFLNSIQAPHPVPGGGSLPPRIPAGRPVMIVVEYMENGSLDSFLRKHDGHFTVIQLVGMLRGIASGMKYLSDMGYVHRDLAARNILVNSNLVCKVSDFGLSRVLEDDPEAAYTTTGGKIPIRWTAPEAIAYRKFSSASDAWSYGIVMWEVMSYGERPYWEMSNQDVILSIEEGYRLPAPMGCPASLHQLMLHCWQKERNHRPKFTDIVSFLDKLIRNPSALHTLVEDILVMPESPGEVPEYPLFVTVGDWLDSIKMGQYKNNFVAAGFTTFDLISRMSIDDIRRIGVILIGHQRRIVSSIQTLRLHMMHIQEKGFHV

[26] = target: panel of 468 diverse kinases (Homo sapiens, UniProt Q13976); conditions: PRKG1; 1000 nM; read-out: Percent Control
Sequence of panel of 468 diverse kinases (Homo sapiens, UniProt Q13976) (Q13976 2-671 limits assumed): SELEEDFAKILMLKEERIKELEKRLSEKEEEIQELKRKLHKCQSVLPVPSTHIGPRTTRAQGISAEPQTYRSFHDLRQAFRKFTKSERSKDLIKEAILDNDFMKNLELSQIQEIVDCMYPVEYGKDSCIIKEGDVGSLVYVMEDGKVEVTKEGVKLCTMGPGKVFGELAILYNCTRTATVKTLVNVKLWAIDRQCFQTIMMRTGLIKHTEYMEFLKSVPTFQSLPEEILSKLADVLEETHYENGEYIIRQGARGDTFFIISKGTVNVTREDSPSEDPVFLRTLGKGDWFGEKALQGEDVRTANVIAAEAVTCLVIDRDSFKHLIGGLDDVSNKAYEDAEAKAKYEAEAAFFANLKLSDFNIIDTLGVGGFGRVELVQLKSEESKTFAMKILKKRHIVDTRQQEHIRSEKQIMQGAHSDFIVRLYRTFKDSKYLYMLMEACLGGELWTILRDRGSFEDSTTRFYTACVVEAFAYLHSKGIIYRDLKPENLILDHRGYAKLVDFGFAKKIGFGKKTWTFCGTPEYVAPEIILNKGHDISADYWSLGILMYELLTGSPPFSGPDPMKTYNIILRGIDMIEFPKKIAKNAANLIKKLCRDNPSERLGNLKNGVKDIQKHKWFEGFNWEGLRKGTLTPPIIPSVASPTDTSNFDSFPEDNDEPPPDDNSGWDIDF

[27] = target: panel of 468 diverse kinases (Homo sapiens, UniProt P04629); conditions: TRKA; 1000 nM; read-out: Percent Control
Sequence of panel of 468 diverse kinases (Homo sapiens, UniProt P04629) (P04629 33-796 limits assumed): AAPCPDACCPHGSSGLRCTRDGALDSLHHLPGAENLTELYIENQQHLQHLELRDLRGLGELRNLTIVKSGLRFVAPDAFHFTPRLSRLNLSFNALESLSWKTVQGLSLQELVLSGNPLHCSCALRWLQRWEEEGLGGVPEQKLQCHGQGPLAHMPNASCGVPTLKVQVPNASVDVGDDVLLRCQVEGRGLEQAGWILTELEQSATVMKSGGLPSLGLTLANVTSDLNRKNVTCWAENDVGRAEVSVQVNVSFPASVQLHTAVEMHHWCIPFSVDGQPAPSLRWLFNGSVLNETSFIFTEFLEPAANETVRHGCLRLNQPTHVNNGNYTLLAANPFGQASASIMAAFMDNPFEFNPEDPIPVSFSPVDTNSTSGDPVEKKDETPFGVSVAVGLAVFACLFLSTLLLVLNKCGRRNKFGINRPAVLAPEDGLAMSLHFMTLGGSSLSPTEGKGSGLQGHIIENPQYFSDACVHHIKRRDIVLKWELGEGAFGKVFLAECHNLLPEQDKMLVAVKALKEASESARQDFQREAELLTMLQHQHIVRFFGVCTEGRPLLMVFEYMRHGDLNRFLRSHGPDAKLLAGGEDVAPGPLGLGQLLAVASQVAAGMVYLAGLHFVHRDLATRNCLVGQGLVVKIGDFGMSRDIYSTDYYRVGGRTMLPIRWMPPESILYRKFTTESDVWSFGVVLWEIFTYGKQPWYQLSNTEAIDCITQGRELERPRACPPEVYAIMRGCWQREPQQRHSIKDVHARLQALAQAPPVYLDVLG

[28] = target: panel of 468 diverse kinases (Homo sapiens, UniProt P80192); conditions: MLK1; 1000 nM; read-out: Percent Control
[29] = target: panel of 468 diverse kinases (Homo sapiens, UniProt P36888, D835V); conditions: FLT3(D835V); 1000 nM; read-out: Percent Control
[30] = target: panel of 468 diverse kinases (Homo sapiens, UniProt O14965); conditions: AURKA; 1000 nM; read-out: Percent Control
[31] = target: panel of 468 diverse kinases (Homo sapiens, UniProt Q8IY84); conditions: NIM1; 1000 nM; read-out: Percent Control

**Q.** `COc1cc2nc(NC3CC3)nc(NC3CCN(C(C)C)CC3)c2cc1OC` [Formula IV] was tested. Which remaining activity at 1 µM [1] did it give?
**A.** 73%

**Q.** And the remaining activity at 1 µM [2]?
**A.** 96%

**Q.** What about the remaining activity at 1 µM [3] of the same compound?
**A.** 100%

**Q.** And the remaining activity at 1 µM [4]?
**A.** 63%

**Q.** And the remaining activity at 1 µM [5]?
**A.** 55%

**Q.** And the remaining activity at 1 µM [6]?
**A.** 76%

**Q.** What about the remaining activity at 1 µM [7] of the same compound?
**A.** 91%

**Q.** And the remaining activity at 1 µM [8]?
**A.** 84%

**Q.** What about the remaining activity at 1 µM [9] of the same compound?
**A.** 100%

**Q.** And the remaining activity at 1 µM [10]?
**A.** 90%

**Q.** And the remaining activity at 1 µM [11]?
**A.** 71%

**Q.** And the remaining activity at 1 µM [12]?
**A.** 94%

**Q.** What about the remaining activity at 1 µM [13] of the same compound?
**A.** 63%

**Q.** What about the remaining activity at 1 µM [14] of the same compound?
**A.** 100%

**Q.** What about the remaining activity at 1 µM [15] of the same compound?
**A.** 91%

**Q.** And the remaining activity at 1 µM [16]?
**A.** 95%

**Q.** And the remaining activity at 1 µM [17]?
**A.** 80%

**Q.** And the remaining activity at 1 µM [18]?
**A.** 100%

**Q.** What about the remaining activity at 1 µM [19] of the same compound?
**A.** 98%

**Q.** What about the remaining activity at 1 µM ([20]; RSK1(Kin.Dom.1-N-terminal)) of the same compound?
**A.** 93%

**Q.** What about the remaining activity at 1 µM ([20]; RSK1(Kin.Dom.2-C-terminal)) of the same compound?
**A.** 98%

**Q.** What about the remaining activity at 1 µM [21] of the same compound?
**A.** 100%

**Q.** What about the remaining activity at 1 µM [22] of the same compound?
**A.** 90%

**Q.** What about the remaining activity at 1 µM [23] of the same compound?
**A.** 72%

**Q.** And the remaining activity at 1 µM [24]?
**A.** 99%

**Q.** What about the remaining activity at 1 µM [25] of the same compound?
**A.** 100%

**Q.** And the remaining activity at 1 µM [26]?
**A.** 64%

**Q.** And the remaining activity at 1 µM [27]?
**A.** 67%

**Q.** What about the remaining activity at 1 µM [28] of the same compound?
**A.** 98%

**Q.** What about the remaining activity at 1 µM [29] of the same compound?
**A.** 44%

**Q.** What about the remaining activity at 1 µM [30] of the same compound?
**A.** 56%

**Q.** What about the remaining activity at 1 µM [31] of the same compound?
**A.** 72%

From patent US11542240B2, “STK19 inhibitors for treatment of cancer” (TRUSTEES OF BOSTON UNIVERSITY, priority 2018, dated 2023)
